{"source": "patent US8597660B2", "about": "“Therapeutic approach to neurodegenerative disorders using a TFP5-peptide” (The United States of America, as represented by the …, priority 2010, dated 2013)", "key": {"tau phosphorylation": {"tested_on": "tau phosphorylation", "test": "Aβ-induced tau phosphorylation in cortical neurons, Western blot", "assay_type": "cell-based, rat", "details": "Aβ 6 h; P5 infection or roscovitine", "description": "Primary cultures of rat cortical neurons were prepared from E-18 rat fetuses as described previously (Zheng et al., J Biol Chem 278(26), 24026-24032, 2003). After 7 days, cells were infected independently or co-infected with empty vector (EV), the constructs of P5, P25, P35, wild-type Cdk5 and dominant negative Cdk5 (changing Lys33 to Thr33) using the Adenoviral vector (pAdTrack-CMV) packaging system as described above. […] The cells were fixed for immunocytochemistry analyses (ICC) or lysed with lysis buffer for immunoprecipitation and Western blot analyses. Cortical neuron cultures were prepared and plated on the cover slips as described. Human embryo kidney cells (HEK293) were grown as described previously (Zheng et al., Eur J Biochem 269(18), 4427-4434, 2002). In these studies HEK293 cells on day 1, or neurons on day 5, were transfected with or without Myc-P5-GFP using Lipofectamine 2000 following the manufacturer's instructions.\n(§1) Western blot analysis was performed as previously described (Zheng et al., Eur J Biochem 269(18), 4427-4434, 2002). In brief, an equal amount of total protein (20 μg/lane) was resolved on a 4-20% SDS polyacrylamide gel and blotted onto a polyvinylidene difluoride membrane. This membrane was incubated in blocking buffer containing 20 mM Tris-HCl (pH 7.4), 150 mM NaCl, and 0.1% (vol/vol) Tween 20 (TTBS) plus 5% dry milk (w/v) for 1 hour at room temperature followed by incubation overnight at 4° C. in primary antibodies (see antibodies). The membranes were then washed four times in TTBS (5 minutes/each) followed by incubation in secondary antibody (goat-antimouse or goat anti-rabbit IgG (H+L)-horseradish peroxidase (HRP) conjugate at a dilution of 1:3000) for 1 hour at room temperature. Western blots were analyzed using the Amersham Enhanced Chemiluminescence (ECL) kit following the manufacturer's instructions (GE Healthcare, Piscataway, N.J.).\nAmyloid plaques and neurofibrillary tangles, pathological hallmarks of several neurodegenerative disorders, are linked to deregulated Cdk5 and neuronal death. According to one model, β amyloid, being toxic, may evoke abnormal calcium influx into neurons which activates calpains. […] Hyperactivation of Cdk5, leads to the aberrant phosphorylation of tau and neurofilaments in a number of neurodegenerative diseases including AD and ALS. For example, primary cortical neurons, when treated with Aβ1-42 are induced to form Cdk5/P25 complexes, hyperactive Cdk5 activity, hyperphosphorylation of tau, and neuronal apoptosis. To determine whether P5 will inhibit endogenous tau phosphorylation induced by Aβ treatment in cortical neurons, 7 day old cortical neurons, infected with empty vector (EV) or with P5 were treated with Aβ for 6 hours, lysed and prepared for Cdk5 immunoprecipitation and kinase assay. Aβ treatment causes an approximate 3-fold increase in endogenous Cdk5 activity as visualized by histone H1 phosphorylation (FIG. 4A, panel 5, lane 2; FIG. 4B).\n; FIG. 4D). […] Tau antibodies p-Ser404, PHF antibody AT180 (recognizes p-Thr231) and p-Ser422 antibodies were used to observe whether P5 affects other tau phosphorylation residues (FIGS. 4E, 4F). […]. Tau 5 recognizes total tau, nonphosphorylated as well as phosphorylated."}, "cleaved caspase-3": {"tested_on": "cleaved caspase-3", "test": "Cleaved caspase-3 Western blot in Aβ-treated cortical neurons", "assay_type": "cell-based, rat", "details": "Aβ 6 h; P5 infection or roscovitine", "description": "as §1\nTo determine whether P5 inhibited neuronal apoptosis induced by Aβ, primary cortical neurons (5 days in culture (DIC)) were transfected with P5-GFP using Lipofectamine 2000. After 24 hours, cells were exposed to Aβ for 6 hours. The neurons were fixed and subjected to TUNEL staining, while P5 was visualized by (green fluorescent protein) GFP. […] The data are quantified in FIG. 5B. […] The data are quantified in FIG. 5D."}, "Cdk5/P25 [1]": {"target": "T1, Cdk5/P25 (Homo sapiens, UniProt Q00535)", "T1 sequence (Q00535 whole entry, species assumed)": "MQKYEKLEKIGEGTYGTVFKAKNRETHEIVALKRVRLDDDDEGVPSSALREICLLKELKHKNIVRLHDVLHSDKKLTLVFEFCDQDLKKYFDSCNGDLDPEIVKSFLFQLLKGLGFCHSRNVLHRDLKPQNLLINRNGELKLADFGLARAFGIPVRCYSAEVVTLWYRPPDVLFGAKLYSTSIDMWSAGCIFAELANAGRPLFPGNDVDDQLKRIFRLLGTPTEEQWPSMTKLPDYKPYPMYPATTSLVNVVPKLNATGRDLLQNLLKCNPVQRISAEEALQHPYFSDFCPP", "details": "earlier studies, cited from earlier work"}, "Cdk5/P25 [2]": {"target": "T1, Cdk5/P25", "details": "earlier studies; cited from earlier work"}, "[3]": {"test": "Toxicity of ip TFP5 in mice", "assay_type": "in vivo, mouse", "details": "ip TFP5 (0.2 mM; or 10 weeks in three AD mice)"}, "Cdk5/P25 [4]": {"target": "T1, Cdk5/P25", "test": "In vitro kinase (pad) assay of active Cdk5/P25 with histone H1 as substrate", "assay_type": "biochemical", "details": "in vitro kinase assay, histone H1, FIG. 1", "description": "Kinase assays were performed as previously described (Veeranna, et al., J Neurosci 18(11), 4008-4021, 1998). Briefly, 7 days in culture (7 DIC) primary rat cortical neurons were infected with P25, P35, Cdk5 wild-type, dominant negative-Cdk5 and P5 using the lentiviral gene delivery as described earlier. Cdk5 was immunoprecipitated using the polyclonal C8 antibody overnight at 4° C. and immunoglobulin isolated using Protein A sepharose beads for 2 hours at 4° C. Immunoprecipitates were washed three times with lysis buffer and then once with 1× kinase buffer containing 20 mM Tris-Cl pH 7.4, 1 mM EDTA, 1 mM EGTA, 10 mM MgCl2, 10 mM sodium fluoride and 1 mM sodium orthovanadate. Endogenous Cdks were immunoprecipitated from HEK 293 cells using their respective antibodies and treated as above. Kinase assays were performed in the same buffer containing 1 mM DTT, 0.1 mM ATP and 0.185 MBq [γ-32P] ATP with 20 μg of histone H1 as the substrate. Phosphorylation was performed in a final volume of […] incubated at 30° C. for 60 minutes, stopped by the addition of 10% SDS sample buffer and heating at 95° C. for 5 minutes. Samples were separated by SDS-PAGE, gels were stained with Coomassie, destained, dried and exposed to autoradiography. In pad assays, 25 μl aliquots of the incubation mixture were placed on a Whatman p80 paper square, washed and dried and placed in a scintillation vial for counting.\nThese are GST-P1 (E211-A277 of SEQ ID NO: 16), 67 amino acid residues; GST-P2 (M237-A277), 41 residues; GST-P3 (E221-L267 of SEQ ID NO: 16), 47 residues; GST-P4 (E221-L249 of SEQ ID NO: 16), 29 residues and GST-P5 (K254-A277 of SEQ ID NO: 16) 24 residues. Each was incubated with active Cdk5/P25 in a kinase assay in vitro. […] FIG. 10 provides a comparison of P5 and CIP, relative to P35.\nIn a dose-dependent kinase assay the effective inhibitory concentration of P5 for both the Cdk5/P25 and Cdk5/P35 complexes was evaluated. His-P5 peptide was added at different concentrations to the in vitro assay containing 100 μM [γ32-P] ATP and histone H1. Inhibition increased progressively with increasing P5 concentration in both complexes (Compare FIGS. 2A, 2B with 2C, 2D).\nP5, a 24 amino acid peptide derived from Cdk5 regulator p35, was modified by conjugating it with TAT PTD at the C-terminal end and with FITC (using a GGG linker) at the N-terminus to produce a fluorescent (FITC-labeled) TFP5 (SEQ ID NO: 2) peptide. In a dose-dependent kinase assay the effective inhibitory concentration of TFP5 for both the Cdk5/P25 and Cdk5/P35 complexes was evaluated. His-P5 peptide was added at different concentrations to the in vitro assay containing 100 μM [γ32-P] ATP and histone H1. […] Data represent means of four independent experiments with error bars representing SEM (*p≦0.05, **p≦0.001)."}}, "note": "“Also recorded” adds a separate entry of the source. Peptide text beside a SMILES is read from it. * marks the point of attachment. FITC = O=C1OC2(c3ccc(O)cc3Oc3cc(O)ccc32)c2ccc(NC(=S)*)cc21", "data": [{"compound": "CC[C@H](CO)Nc1nc(NCc2ccccc2)c2ncn(C(C)C)c2n1", "note": "[roscovitine, reference compound]", "values": [{"measurement": "Aβ-induced tau phosphorylation at Ser422", "setting": "tau phosphorylation", "result": "significantly inhibits tau phosphorylation at Ser422 site"}, {"measurement": "Aβ-induced tau phosphorylation detected by AT8 and p-Ser199/202 antibodies", "setting": "tau phosphorylation", "result": "baseline levels of tau phosphorylation; also recorded: significantly inhibited"}, {"measurement": "Cleaved caspase-3 expression", "setting": "cleaved caspase-3", "result": "reduced levels of cleaved caspase-3 comparable to that seen with P5 infection"}]}, {"compound": "CIP: 125-amino acid truncated peptide from P35 (residues 154-279 of SEQ ID NO: 16), inhibitor of Cdk5/P25", "values": [{"measurement": "Tau hyperphosphorylation", "setting": "Cdk5/P25 [1]", "result": "reduces tau hyperphosphorylation"}, {"measurement": "Apoptosis induced by Cdk5/P25", "setting": "Cdk5/P25 [1]; transfected HEK cells and neurons", "result": "protects transfected HEK cells and neurons from apoptosis"}, {"measurement": "Inhibition of Cdk5/P25 activity by CIP", "setting": "Cdk5/P25 [2]", "result": "highly effective and specific inhibitor of Cdk5/P25 activity"}]}, {"compound": "CC[C@H](C)[C@H](NC(=O)[C@H](CCC(N)=O)NC(=O)[C@H](CC(C)C)NC(=O)[C@H](CCSC)NC(=O)[C@H](CCCCN)NC(=O)[C@H](CO)NC(=O)[C@H](CO)NC(=O)[C@H](CCSC)NC(=O)[C@H](CC(C)C)NC(=O)[C@H](CC(N)=O)NC(=O)[C@@H](NC(=O)[C@@H](NC(=O)[C@H](CO)NC(=O)[C@H](CC(C)C)NC(=O)[C@H](CS)NC(=O)[C@H](CCCNC(=N)N)NC(=O)[C@H](CC(=O)O)NC(=O)[C@H](Cc1c[nH]c2ccccc12)NC(=O)[C@H](Cc1ccccc1)NC(=O)[C@H](C)NC(=O)[C@H](CCC(=O)O)NC(=O)[C@H](CCCCN)NC(=O)CNC(=O)CNC(=O)CNC(=S)Nc1ccc2c(c1)C(=O)OC21c2ccc(O)cc2Oc2cc(O)ccc21)C(C)C)[C@@H](C)CC)C(=O)N[C@@H](CC(N)=O)C(=O)N[C@@H](C)C(=O)N[C@@H](Cc1ccc(O)cc1)C(=O)N[C@@H](C)C(=O)N[C@@H](CCCNC(=N)N)C(=O)N[C@@H](C)C(=O)N[C@@H](C)C(=O)N[C@@H](CCCNC(=N)N)C(=O)N[C@@H](CCCNC(=N)N)C(=O)N[C@@H](C)C(=O)N[C@@H](C)C(=O)N[C@@H](CCCNC(=N)N)C(=O)N[C@@H](CCCNC(=N)N)C(=O)O", "note": "[TFP5] ({FITC}-GGGKEAFWDRCLSVINLMSSKMLQINAYARAARRAARR-OH)", "values": [{"measurement": "Toxicity in vivo", "setting": "[3]", "result": "without any toxicity; also recorded: without resulting in cell death; also recorded: no toxic effects were observed"}]}, {"compound": "P3: 47 residue peptide derived from CIP, E221-L267 of SEQ ID NO: 16 (P35)", "values": [{"measurement": "Inhibition of Cdk5/P25 activity, comparison among peptides and CIP", "setting": "Cdk5/P25 [4]", "result": "more effective inhibitors of Cdk5/P25 activity than CIP"}]}]}
